Four compounds from patent US7884103B2 (priority 2003, dated 2011) can be followed below.

The test system of assay [1] is Plasmopara viticola on vines. The assay can be described thus: Action against Plasmopara viticola on vines, residual-protective action (D-1a). It is filed as in vivo. The settings on record: vine seedlings sprayed 24 hours before infection, evaluated after 6 days, untreated plants attack 60-100%. The procedure: (§1) Action Against Plasmopara Viticola on Vines
A) Residual-Protective Action
Fungus infestation is evaluated after incubation for 6 days at 95-100% relative humidity and +20° C.

For assay [2], the system named is Plasmopara viticola on vines. The assay can be described thus: Action against Plasmopara viticola on vines, residual-curative action (D-1b). The following applies: vine seedlings sprayed 24 hours after infection, evaluated 6 days after infection, untreated plants attack 60-100%. In kind it is in vivo. On the procedure:
as §1
b) Residual-Curative Action
Vine seedlings are infected at the 4- to 5-leaf stage with a sporangia suspension of the fungus. […] After the spray coating has dried, the treated plants are placed in the humidity chamber again. Fungus infestation is evaluated 6 days after infection.

The test system of assay [3] is Septoria nodorum (Glume blotch). The assay can be described thus: Septoria nodorum wheat leaf segment test, preventive fungicidal activity. In kind it is cell-based. The following applies: tested dose range 200 to 22 ppm, wheat leaf segments, assessed 4 dpi. On the procedure: Septoria nodorum (Glume blotch): Wheat leaf segments are placed on agar in a multiwell plate (24-well format) and sprayed with test solutions. After drying, the leaf disks are inoculated with a spore suspension of the fungus. After appropriate incubation the activity of a compound is assessed 4 dpi (days after inoculation) as preventive fungicidal activity. Within the tested dose range of 200 to 22 ppm the Compound No. 82 inhibited at least 80% of fungal growth.

Usually inhibition stands for the share of the control response that was lost under treatment. High values mean a strong effect, low ones a weak effect.

Each structure is given as a SMILES string.

Turning to `CCOc1ccc(OCC(C)(NS(=O)(=O)Cc2ccccc2)C(=O)N(C)OC)cc1` (stereo not shown) [compound 083, 3-(4-Ethoxy-phenoxy)-N-methoxy-2,N-dimethyl-2-phenylmethanesulfonylamino-propionamide], the inhibition at 200 ppm in assay [1] and in assay [2] was 80 to 100% throughout. For `C#CCNC(=O)C(C)(COc1ccc(OCC)cc1)NS(=O)(=O)Cc1ccccc1` (stereo not shown) [compound 087, 3-(4-Ethoxy-phenoxy)-2-methyl-2-phenylmethanesulfonylamino-N-prop-2-ynyl-propionamide], the inhibition at 200 ppm in assay [1] and in assay [2] was 80 to 100% in each case. For `CCOc1ccc(OCC(C)(NS(=O)(=O)Cc2ccccc2)C(=O)OC)cc1` (stereo not shown) [compound 082, 3-(4-Ethoxy-phenoxy)-2-methyl-2-phenylmethanesulfonylamino-propionic Acid Methyl Ester], the “inhibition of fungal growth” value in assay [3] was “at least 80%”.

Turning to `CC(COc1ccc(-n2cncn2)cc1)(NS(=O)(=O)Cc1ccccc1)C(=O)O` (stereo not shown) [compound 100, 2-Methyl-2-phenylmethanesulfonylamino-3-(4-[1,2,4]triazol-1-yl-phenoxy)-propionic Acid], the inhibition at 200 ppm in assay [1] and in assay [2] was 80 to 100% throughout.
